Consider 79 compounds from article PMC12040169 (PLOS Biology, 2025).

A short description of one series: in vitro. To be noted: human, hela cells, % viability.
For `O=C1CCC(=O)N1CCOc1nccnc1N1CCN(CCCn2c(=O)[nH]c3ccccc32)CC1` [CBK084300], the viability at 28.5 h, 10 µM is 110%.
With `CSCCN1CCN(c2nccnc2OCCN2C(=O)CCC2=O)CC1` [CBK084301], the viability at 28.5 h, 10 µM came out at 105%.
With `Nc1ccc(-c2ccc(OC(F)(F)F)cc2)c2ccccc12` [CBK084327], the viability at 28.5 h, 10 µM was 84.6%.
With `O=C1CCC(=O)N1CCOc1nccnc1OC1CCN(Cc2ccc(Cl)c(Cl)c2)CC1` [CBK084335], the viability at 28.5 h, 10 µM stood at 96.2%.
With `O=C1CCC(=O)N1CCOc1nccnc1OC1CCN(Cc2ccccc2F)CC1` [CBK084337], the viability at 28.5 h, 10 µM was 96.4%.
Turning to `O=C1CCC(=O)N1CCOc1nccnc1OC1CCN(Cc2ccc(Cl)cc2)CC1` [CBK084338], the viability at 28.5 h, 10 µM was found to be 108%.
Same read-out and setting: under `O=C1CCC(=O)N1CCOc1nccnc1OC1CCN(Cc2ccc([N+](=O)[O-])cc2)CC1` [CBK084343] stands 95.7%.
Still for that read-out and setting: to `O=C1CCC(=O)N1CCOc1nccnc1OC1CCN(Cc2ccccc2-c2ccccc2)CC1` [CBK084344] belongs 110%.
Turning to `O=C1CCC(=O)N1CCOc1nccnc1OC1CCN(CCOc2ccccc2)CC1` [CBK084354], the viability at 28.5 h, 10 µM came out at 101%.
Turning to `COc1ccc(CCN2CCC(Oc3nccnc3OCCN3C(=O)CCC3=O)CC2)cc1OC` [CBK084359], the viability at 28.5 h, 10 µM was found to be 109%.
On the same count and under the same terms, under `Clc1ccc(CN2CCC(Oc3cncc(OCC4COc5ccccc5O4)n3)C2)cc1` (stereo not shown) [CBK084364] stands 94.7%; under `c1cncc(CN2CCC(Oc3cncc(OCC4COc5ccccc5O4)n3)C2)c1` (stereo not shown) [CBK084365], 96.5%.
`NC(=O)CN1CCC(Oc2cncc(OCC3COc4ccccc4O3)n2)C1` (stereo not shown) [CBK084372]: the viability at 28.5 h, 10 µM is 98.2%.
As for `Cc1cccc(C)c1NC(=O)CN1CCC(Oc2cncc(OCC3COc4ccccc4O3)n2)C1` (stereo not shown) [CBK084373], the viability at 28.5 h, 10 µM was 98.5%.
Same read-out and setting: under `CCN(CC)C(=O)CN1CCC(Oc2cncc(OCC3COc4ccccc4O3)n2)C1` (stereo not shown) [CBK084374] stands 102%.
Still for that read-out and setting: to `CCOC(=O)CN1CCC(Oc2cncc(OCC3COc4ccccc4O3)n2)C1` (stereo not shown) [CBK084375] belongs 92.6%; to `O=c1[nH]c2ccccc2n1CCCN1CCC(Oc2cncc(OCC3COc4ccccc4O3)n2)C1` (stereo not shown) [CBK084380], 94.4%; to `CSCCN1CCC(Oc2cncc(OCC3COc4ccccc4O3)n2)C1` (stereo not shown) [CBK084381], 105%.
For the compound `c1ccc(CCN2CCC(Oc3cncc(OCC4COc5ccccc5O4)n3)C2)cc1` (stereo not shown) [CBK084382], the viability at 28.5 h, 10 µM came to 93%.
Still for that read-out and setting: under `c1ccc2c(c1)OCC(COc1cncc(OC3CCN(CC4CCCCC4)C3)n1)O2` (stereo not shown) [CBK084387] stands 109%; under `COc1ccc(CCN2CCC(Oc3cncc(OCC4COc5ccccc5O4)n3)C2)cc1OC` (stereo not shown) [CBK084389], 112%.
On the same count and under the same terms, under `COc1ccc(Oc2cncc(OC3CCN(Cc4ccc(Cl)c(Cl)c4)C3)n2)cc1OC` (stereo not shown) [CBK084391] stands 115%; under `COc1ccc(Oc2cncc(OC3CCN(CC(N)=O)C3)n2)cc1OC` (stereo not shown) [CBK084402], 93.8%; under `COc1ccc(Oc2cncc(OC3CCN(CC(=O)Nc4c(C)cccc4C)C3)n2)cc1OC` (stereo not shown) [CBK084403], 101%.
Same read-out and setting: to `CCN(CC)C(=O)CN1CCC(Oc2cncc(Oc3ccc(OC)c(OC)c3)n2)C1` (stereo not shown) [CBK084404] belongs 93.9%; to `COc1ccc(Oc2cncc(OC3CCN(CCCn4c(=O)[nH]c5ccccc54)C3)n2)cc1OC` (stereo not shown) [CBK084406], 97.6%; to `COc1ccc(Oc2cncc(OC3CCN(CCc4ccc(F)cc4)C3)n2)cc1OC` (stereo not shown) [CBK084409], 94.1%.
With `COc1ccc(Oc2cncc(OC3CCN(CC4CC4)C3)n2)cc1OC` (stereo not shown) [CBK084412], the viability at 28.5 h, 10 µM stood at 89.3%.
Take `O=[N+]([O-])c1ccc(CN2CCC(Oc3cncc(OCc4ccc(Cl)c(Cl)c4)n3)C2)cc1` (stereo not shown) [CBK084426]: the viability at 28.5 h, 10 µM was 97.1%.
Same read-out and setting: to `NC(=O)CN1CCC(Oc2cncc(OCc3ccc(Cl)c(Cl)c3)n2)C1` (stereo not shown) [CBK084429] belongs 101%; to `Clc1ccc(COc2cncc(OC3CCN(CC4CC4)C3)n2)cc1Cl` (stereo not shown) [CBK084443], 86.5%.
Same read-out and setting: under `Clc1ccc(CN2CCC(Oc3cncc(OCc4cccnc4)n3)C2)cc1Cl` (stereo not shown) [CBK084448] stands 84%; under `NC(=O)CN1CCC(Oc2cncc(OCc3cccnc3)n2)C1` (stereo not shown) [CBK084459], 98%; under `Cc1cccc(C)c1NC(=O)CN1CCC(Oc2cncc(OCc3cccnc3)n2)C1` (stereo not shown) [CBK084460], 87.6%.
With `CCN(CC)C(=O)CN1CCC(Oc2cncc(OCc3cccnc3)n2)C1` (stereo not shown) [CBK084461], the viability at 28.5 h, 10 µM was determined as 92.4%.
Same read-out and setting: under `Clc1ccc(CN2CCC(Oc3cncc(OCCN4CCOCC4)n3)C2)cc1Cl` (stereo not shown) [CBK084477] stands 91.4%; under `c1ncc(OC2CCN(CCN3CCOCC3)C2)nc1OCCN1CCOCC1` (stereo not shown) [CBK084492], 97.6%; under `OCCCN1CCC(Oc2cncc(OCCN3CCOCC3)n2)C1` (stereo not shown) [CBK084494], 95.9%.
Same read-out and setting: to `N#CCCCN1CCC(Oc2cncc(OCCN3CCOCC3)n2)C1` (stereo not shown) [CBK084495] belongs 103%.
The same measure, in the same setting: to `c1ccc(CCN2CCC(Oc3cncc(OCCN4CCOCC4)n3)C2)cc1` (stereo not shown) [CBK084497] belongs 87.6%; to `COc1ccc(-n2[nH]c(C)c(Cc3c(Cl)cccc3Cl)c2=O)cc1` [CBK084521], 94.5%.
Turning to `CCC1CCCCN1C(=O)c1ccc(C)s1` (stereo not shown) [CBK084526], the viability at 28.5 h, 10 µM stood at 96.6%.
Still for that read-out and setting: to `CCC1CCCCN1C(=O)c1ccc(OC)c(OC)c1` (stereo not shown) [CBK084527] belongs 117%; to `CCC1CCCCN1C(=O)C1CCCCC1` (stereo not shown) [CBK084528], 90%; to `CC(C)(C)OC(=O)N1CCN(Cc2ccc(N)c3ccccc23)CC1` [CBK084530], 109%.
On to `CSc1ccc(-c2cnc(N)c(-c3ccc(C(=O)N4CCOCC4)cc3)n2)cc1` [CBK084539], for which the viability at 28.5 h, 10 µM is 109%.
Regarding `COc1ccc2[nH]c3c(c2c1)CCNC31CCN(CCSc2ccccc2)C1` (stereo not shown) [CBK084541T], the viability at 28.5 h, 10 µM was determined as 92%.
The same measure, in the same setting: under `O=C(Nc1[nH]nc(O)c1Cc1c(Cl)cccc1Cl)C1CCCCC1` [CBK084558] stands 92.9%; under `O=C(CCN1CCCC12CCc1[nH]c3ccccc3c1C2)c1ccc(F)cc1` (stereo not shown) [CBK084593], 92.6%.
Still for that read-out and setting: to `c1ccc(OCCN2CCC3(C2)NCCc2[nH]ccc23)cc1` (stereo not shown) [CBK084595T] belongs 90.9%; to `COC(=O)NCCc1c[nH]c2ccc(OC)cc12` [CBK084597], 98%.
With `CN1CCN(C(c2ccc(O)cc2)c2nnnn2Cc2ccccc2)CC1` (stereo not shown) [CBK084719], the viability at 28.5 h, 10 µM was 94.8%.
On the same count and under the same terms, under `Cc1ccc(-c2nnn(CC(=O)N(CCO)C(C(=O)NC3CCCC3)c3ccc(F)cc3)n2)o1` (stereo not shown) [CBK084756] stands 89.2%; under `NC(=O)c1c(NC(=O)CSc2nnc(-c3ccccc3)n2CC2CCCO2)sc2c1CCC2` (stereo not shown) [CBK084789], 110%; under `O=C(Nc1ccccc1)NC1CC2CCC(C1)N2Cc1nnnn1Cc1ccco1` (stereo not shown) [CBK085071], 107%.
For the compound `CC(C)CC(NC(=O)c1ccccc1)C(=O)OCC(=O)Nc1nc2ccccc2s1` (stereo not shown) [CBK085134], the viability at 28.5 h, 10 µM was found to be 92.5%.
Same read-out and setting: under `Cc1ccc(C(=O)N(Cc2ccncc2)C2CCCCC2)cc1C` [CBK085386] stands 97.9%; under `CCSc1nnc(-c2cccc(C)c2)n1CC1CCCO1` (stereo not shown) [CBK085413], 93.1%; under `CSc1nnc(-c2cccc(C)c2)n1CC1CCCCC1` [CBK085418], 100%.
Still for that read-out and setting: under `CCSc1nnc(-c2cccc(C)c2)n1CC1CCCCC1` [CBK085419] stands 96.3%; under `Cc1cccc(-c2nnc(SCC3CC3)n2CC2CCCCC2)c1` [CBK085423], 87.7%; under `Nc1ncc(Br)nc1N1CCC[C@@H]1CO` [CBK085450], 105%.
Take `COc1cc(N2CCCNCC2)ncn1` [CBK085485C]: the viability at 28.5 h, 10 µM is 91.6%.
With `OC[C@H]1CCCN1c1nc(Br)cn2ccnc12` [CBK085496], the viability at 28.5 h, 10 µM came out at 101%.
On the same count and under the same terms, under `O=C1N=C(NC2CCCCCC2)SC1C(=O)N1CCCCCC1` (stereo not shown) [CBK085513] stands 93.1%; under `CS(=O)(=O)Nc1ccc2cc(-c3ccsc3)cnc2n1` [CBK085665], 102%; under `COc1ccc(C(C)C)cc1-c1cnc2nc(NS(C)(=O)=O)ccc2c1` [CBK085672], 102%.
For `CS(=O)(=O)Nc1ccc2cc(-c3ccc(Oc4ccccc4)cc3)cnc2n1` [CBK085674], the viability at 28.5 h, 10 µM was determined as 98%.
On the same count and under the same terms, under `COc1cc(F)ccc1-c1nc2ncccc2cc1NS(C)(=O)=O` [CBK085692] stands 89%; under `CS(=O)(=O)Nc1cc2cccnc2c(-c2ccc3c(c2)CCO3)n1` [CBK085705], 101%.
Same read-out and setting: under `Nc1cc2ccccc2c(-c2ccsc2)n1` [CBK085710] stands 85.3%; under `CC(C)(C)c1ccc(-c2nc(N)cc3ccccc23)cc1` [CBK085720], 109%; under `Nc1cc2ccccc2c(-c2cccc(C(F)(F)F)c2)n1` [CBK085721], 101%.
In the case of `Nc1cc2ccccc2c(-c2ccc3c(c2)OCCCO3)n1` [CBK085722], the viability at 28.5 h, 10 µM turned out to be 102%.
The same measure, in the same setting: to `CS(=O)(=O)c1ccc(-c2nc(N)cc3ccccc23)cc1` [CBK085724] belongs 96.1%; to `COc1cc(-c2nc(N)cc3ccccc23)cc(OC)c1OC` [CBK085726], 102%; to `CCNC(=O)Nc1cc2ccccc2c(-c2ccc(F)cc2OC)n1` [CBK085731], 62.9%.
The same measure, in the same setting: to `COc1cc(-c2nc(NC(=O)C(C)C)cc3ccccc23)cc(OC)c1OC` [CBK085741] belongs 106%.

Still in this series, the particulars now being: human, hela cells, % viability, bulk resorufin, single well.
For `CCOC(=O)N1CCC2(CC1)Oc1ccc(-c3ccccc3)cc1O2` [CBK085500], the viability at 28.5 h, 10 µM stood at 101%.

Broadly, the viability is a read-out of living cells in per cent, often relative to untreated cells.
